From PubChem BioAssay (NCI)
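In this assay, cells in 96-well plates receive the compound at five concentrations for 48 hours. Endpoints are linearly interpolated between the surrounding concentrations. TGI denotes the concentration required for complete inhibition of growth.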

Assays:
Assay in all cases: inhibition of tumour cell growth, NCI panel, 48 h
RXF 393 renal = tested on: RXF 393 renal
SF-295 CNS = tested on: SF-295 CNS
SK-MEL-28 melanoma = tested on: SK-MEL-28 melanoma
K-562 leukemia = tested on: K-562 leukemia
OVCAR-5 ovarian = tested on: OVCAR-5 ovarian
MOLT-4 leukemia = tested on: MOLT-4 leukemia
IGROV1 ovarian = tested on: IGROV1 ovarian
KM12 colon = tested on: KM12 colon
A549 NSCLC = tested on: A549 NSCLC
CAKI-1 renal = tested on: CAKI-1 renal
NCI/ADR-RES ovarian = tested on: NCI/ADR-RES ovarian
SF-268 CNS = tested on: SF-268 CNS
UACC-62 melanoma = tested on: UACC-62 melanoma
NCI-H23 lung = tested on: NCI-H23 lung
NCI-H460 lung = tested on: NCI-H460 lung
OVCAR-8 ovarian = tested on: OVCAR-8 ovarian
TK-10 renal = tested on: TK-10 renal
HS 578T breast = tested on: HS 578T breast
786-0 renal = tested on: 786-0 renal
MDA-MB-435 = tested on: MDA-MB-435
BT-549 breast = tested on: BT-549 breast
HOP-62 NSCLC = tested on: HOP-62 NSCLC
MDA-MB-231 breast = tested on: MDA-MB-231 breast
SW-620 colon = tested on: SW-620 colon
SK-OV-3 ovarian = tested on: SK-OV-3 ovarian
CCRF-CEM leukemia = tested on: CCRF-CEM leukemia
SNB-19 CNS = tested on: SNB-19 CNS
T-47D breast = tested on: T-47D breast
HL-60(TB) leukemia = tested on: HL-60(TB) leukemia
RPMI-8226 leukemia = tested on: RPMI-8226 leukemia
HCT-15 colon = tested on: HCT-15 colon
NCI-H522 lung = tested on: NCI-H522 lung
MDA-N = tested on: MDA-N
HCT-116 colon = tested on: HCT-116 colon
SK-MEL-2 melanoma = tested on: SK-MEL-2 melanoma
U251 CNS = tested on: U251 CNS
UO-31 renal = tested on: UO-31 renal
EKVX NSCLC = tested on: EKVX NSCLC
OVCAR-4 ovarian = tested on: OVCAR-4 ovarian
M14 melanoma = tested on: M14 melanoma
HT29 colon = tested on: HT29 colon
LOX IMVI melanoma = tested on: LOX IMVI melanoma
SR leukemia = tested on: SR leukemia
UACC-257 melanoma = tested on: UACC-257 melanoma
SK-MEL-5 melanoma = tested on: SK-MEL-5 melanoma
ACHN renal = tested on: ACHN renal
COLO 205 colon = tested on: COLO 205 colon
PC-3 prostate = tested on: PC-3 prostate
DU-145 prostate = tested on: DU-145 prostate
A498 renal = tested on: A498 renal
SN12C renal = tested on: SN12C renal
MCF7 breast = tested on: MCF7 breast
NCI-H226 lung = tested on: NCI-H226 lung
OVCAR-3 ovarian = tested on: OVCAR-3 ovarian
SNB-75 CNS = tested on: SNB-75 CNS
HOP-92 NSCLC = tested on: HOP-92 NSCLC
SF-539 CNS = tested on: SF-539 CNS
MALME-3M melanoma = tested on: MALME-3M melanoma
HCC-2998 colon = tested on: HCC-2998 colon

## CC(C)Oc1cc(O)c2c(c1)OCC=C2CCC(=O)O
RXF 393 renal
  TGI: > 100 µM
SF-295 CNS
  TGI: > 100 µM
SK-MEL-28 melanoma
  TGI: > 100 µM
K-562 leukemia
  TGI: > 100 µM
OVCAR-5 ovarian
  TGI: > 100 µM
MOLT-4 leukemia
  TGI: 91 µM
IGROV1 ovarian
  TGI: > 100 µM
KM12 colon
  TGI: > 100 µM
A549 NSCLC
  TGI: > 100 µM
CAKI-1 renal
  TGI: > 100 µM
NCI/ADR-RES ovarian
  TGI: > 100 µM
SF-268 CNS
  TGI: > 100 µM
UACC-62 melanoma
  TGI: > 100 µM
NCI-H23 lung
  TGI: > 100 µM
NCI-H460 lung
  TGI: > 100 µM
OVCAR-8 ovarian
  TGI: > 100 µM
TK-10 renal
  TGI: 76.8 µM
HS 578T breast
  TGI: > 100 µM
786-0 renal
  TGI: > 100 µM
MDA-MB-435
  TGI: 66 µM
BT-549 breast
  TGI: > 100 µM
HOP-62 NSCLC
  TGI: > 100 µM
MDA-MB-231 breast
  TGI: > 100 µM
SW-620 colon
  TGI: > 100 µM
SK-OV-3 ovarian
  TGI: > 100 µM
CCRF-CEM leukemia
  TGI: 43.3 µM
SNB-19 CNS
  TGI: > 100 µM
T-47D breast
  TGI: > 100 µM
HL-60(TB) leukemia
  TGI: 42 µM
RPMI-8226 leukemia
  TGI: 69.3 µM
HCT-15 colon
  TGI: 66.2 µM
NCI-H522 lung
  TGI: 59.3 µM
MDA-N
  TGI: 54.7 µM
HCT-116 colon
  TGI: 66.5 µM
SK-MEL-2 melanoma
  TGI: > 100 µM
U251 CNS
  TGI: > 100 µM
UO-31 renal
  TGI: 89.1 µM
EKVX NSCLC
  TGI: 91.2 µM
OVCAR-4 ovarian
  TGI: > 100 µM
M14 melanoma
  TGI: 98.6 µM
HT29 colon
  TGI: 53.1 µM
LOX IMVI melanoma
  TGI: > 100 µM
SR leukemia
  TGI: > 100 µM
UACC-257 melanoma
  TGI: 61.4 µM
SK-MEL-5 melanoma
  TGI: 36.5 µM
ACHN renal
  TGI: > 100 µM
COLO 205 colon
  TGI: 31.2 µM
PC-3 prostate
  TGI: > 100 µM
DU-145 prostate
  TGI: > 100 µM
A498 renal
  TGI: 56.6 µM
SN12C renal
  TGI: 69.3 µM
MCF7 breast
  TGI: 40.2 µM
NCI-H226 lung
  TGI: 69.8 µM
OVCAR-3 ovarian
  TGI: > 100 µM
SNB-75 CNS
  TGI: > 100 µM
HOP-92 NSCLC
  TGI: 76.6 µM

## Cn1cnc2c(sc3nc4ccccc4n32)c1=N
RXF 393 renal
  TGI: > 100 µM
SF-295 CNS
  TGI: > 100 µM
SK-MEL-28 melanoma
  TGI: > 100 µM
OVCAR-5 ovarian
  TGI: > 100 µM
MOLT-4 leukemia
  TGI: > 100 µM
IGROV1 ovarian
  TGI: > 100 µM
A549 NSCLC
  TGI: > 100 µM
CAKI-1 renal
  TGI: > 100 µM
NCI/ADR-RES ovarian
  TGI: > 100 µM
SF-268 CNS
  TGI: > 100 µM
SF-539 CNS
  TGI: > 100 µM
UACC-62 melanoma
  TGI: > 100 µM
NCI-H23 lung
  TGI: > 100 µM
OVCAR-8 ovarian
  TGI: > 100 µM
TK-10 renal
  TGI: > 100 µM
HS 578T breast
  TGI: > 100 µM
786-0 renal
  TGI: > 100 µM
MDA-MB-435
  TGI: > 100 µM
BT-549 breast
  TGI: > 100 µM
HOP-62 NSCLC
  TGI: > 100 µM
MDA-MB-231 breast
  TGI: > 100 µM
SW-620 colon
  TGI: > 100 µM
MALME-3M melanoma
  TGI: > 100 µM
SK-OV-3 ovarian
  TGI: > 100 µM
CCRF-CEM leukemia
  TGI: > 100 µM
SNB-19 CNS
  TGI: > 100 µM
T-47D breast
  TGI: > 100 µM
HL-60(TB) leukemia
  TGI: > 100 µM
RPMI-8226 leukemia
  TGI: > 100 µM
HCT-15 colon
  TGI: > 100 µM
MDA-N
  TGI: > 100 µM
HCT-116 colon
  TGI: > 100 µM
SK-MEL-2 melanoma
  TGI: > 100 µM
U251 CNS
  TGI: > 100 µM
UO-31 renal
  TGI: > 100 µM
EKVX NSCLC
  TGI: > 100 µM
OVCAR-4 ovarian
  TGI: > 100 µM
M14 melanoma
  TGI: > 100 µM
HT29 colon
  TGI: > 100 µM
LOX IMVI melanoma
  TGI: > 100 µM
UACC-257 melanoma
  TGI: > 100 µM
SK-MEL-5 melanoma
  TGI: > 100 µM
ACHN renal
  TGI: > 100 µM
COLO 205 colon
  TGI: > 100 µM
PC-3 prostate
  TGI: > 100 µM
DU-145 prostate
  TGI: > 100 µM
A498 renal
  TGI: > 100 µM
MCF7 breast
  TGI: > 100 µM
NCI-H226 lung
  TGI: > 100 µM
HCC-2998 colon
  TGI: > 100 µM
OVCAR-3 ovarian
  TGI: > 100 µM
SNB-75 CNS
  TGI: 73.8 µM
HOP-92 NSCLC
  TGI: > 100 µM
